Data reported in patent publication US20260069629A1, “RECEPTACLE, DEVICE FOR RELEASING CARBON MONOXIDE, TREATMENT SYSTEM, SET FOR TREATING LIVING CELLS, METHOD OF TREATING A MAMMAL, AND CARBON MONOXIDE” (Julius-Maximilians-Universität Würzburg, in Vertretung des …, priority 2022, published 2026).

Legend:
human semen/spermatozoa [1] = assay: Progressive motility of spermatozoa incubated with/without CO, CASA (Example 1); assay type: cell-based; details: two-compartment capsule, 15 mg Mo-CORM, 90 minutes; vs spermatozoa not contacted with CO
Experimental: (§1) In this example, the capsule (18-22 mm in length and 6-8 mm diameter) loaded with 15 mg of CO-releasing molecules (Mo-CORM) and 150 μl of an aqueous FeCl3 solution (583.3 mg/ml) was used for the preservation of a 0.7 mL to about 2.9 mL sample in a standard 15 mL Falcon tube.
(§2) Between 1.46 mL and 5.7 mL human semen/spermatozoa were collected from healthy males of between 25 and 50 years of age in 100 mL sample vials on site. Samples were then divided into two equal fractions each for subsequent incubation with CO (wCO) and without CO (woCO). In order to estimate the spermatozoa concentration in the samples and to establish an initial baseline for each sample, a routine spermiogram was performed before samples were transferred to gas-tight 15 mL Falcon tubes. […] The samples were then analyzed for total motility, progressive motility, static oxidation-reduction potential, and for DNA fragmentation.
Total motility, progressive motility and concentration of the samples were assessed using a CEROS II (Hamilton Thorne, Beverly, MA) computer assisted sperm analysis (CASA) system. 6 μL of a sperm sample diluted 1:1 with Multipurpose Handling Medium-Complete (MHM-C, FujiFilm/IrvineScientific, Santa Ana, CA) was measured and the concentration and level of mobility (total and progressive motility) was assessed.

human semen/spermatozoa [2] = assay: DNA fragmentation of spermatozoa incubated with/without CO, Halo Sperm G2 Kit (Example 1); assay type: cell-based; details: two-compartment capsule, 15 mg Mo-CORM, 90 minutes at 25-35° C.; vs samples not contacted with CO (woCO=1); FIG. 11
Experimental: as §1
as §2, with “tubes. Samples were incubated at 25-35° C. for 90 minutes with and without an activated capsule system in a closed container.” for “tubes.”
To determine DNA fragmentation a count-based microscopy assay was performed. For this spermatozoa samples were diluted using MHM-C (Multipurpose Handling Medium-Complete, FujiFilm, IrvineScientific) to a maximum of 20×E6 spermatozoa per mL and analyzed using a Halo Sperm G2 Kit (Halotech, Madrid, Spain). […] At least 300 spermatozoa were then analyzed using a bright field microscope. […]

human semen/spermatozoa [3] = assay: Static oxidation-reduction potential (sORP) of spermatozoa incubated with/without CO, MiOXSYS (Example 1); assay type: cell-based; details: two-compartment capsule, 15 mg Mo-CORM, 90 minutes at 25-35° C.; vs samples not contacted with CO (woCO=1); FIG. 10
Experimental: as §1
Between 1.46 mL and 5.7 mL human semen/spermatozoa were collected from healthy males of between 25 and 50 years of age in 100 mL sample vials on site. Samples were then divided into two equal fractions each for subsequent incubation with CO (wCO) and without CO (woCO). In order to estimate the spermatozoa concentration in the samples and to establish an initial baseline for each sample, a routine spermiogram was performed before samples were transferred to gas-tight 15 mL Falcon tubes. Samples were incubated at 25-35° C. for 90 minutes with and without an activated capsule system in a closed container. During this incubation period liquefaction took place naturally. The samples were then analyzed for total motility, progressive motility, static oxidation-reduction potential, and for DNA fragmentation.
A Male Infertility Oxidative System (MiOXSYS, Englewood, CO) was used to determine static oxidation-reduction potential (sORP) levels. 30 μL of the sperm samples were transferred to the sample application port on a MiOXSYS sensor and analyzed for 2 minutes. […]

Human sperm = assay: Static oxidation-reduction potential (sORP) of sperm treated with single-chamber receptacles, MiOXSYS (Example 2); assay type: cell-based; details: vs untreated, results expressed in mV/10^6 sperm/mL, FIG. 12
Experimental: Example 2 illustrates the improvement of spermatozoan viability parameters (namely, oxidation-reduction potential) in response to different carbon monoxide (CO) incubation durations. Sperm form the same subject was either treated with carbon monoxide or left untreated, as “untreated” control. Treatments with CO varied in duration (60, 90, 180, or 270 min).
In this example, sperm samples were treated with either one, three, or six receptacles/capsules, each loaded with 5 mg Mo-CORM (corresponds to 0.44 mL CO) for 60 to 270 mins, or left untreated for the same amount of time.
Human sperm was collected from healthy volunteers in 100 mL specimen containers. Afterwards, the ejaculate was split into equal parts and filled into 15 mL gas tight falcon tubes, with one of the samples being exposed to one or more activated receptacles/capsules. Then, both samples were analyzed for static oxidation-reduction potential (sORP) via MiOXSYS after a predetermined time.
An oxidative male infertility measuring System (MiOXSYS, Englewood, CO) was used to determine static oxidation-reduction potential (sORP) levels following manufacturer's specifications. 30 μL of sample were transferred to the sample application port onto a MiOXSYS sensor and analyzed for 2 minutes. The results were expressed in milli Volt (mV) and normalized to the seminal sperm concentration (mV/10^6 sperm/mL).

[4] = Carbon monoxide release from the receptacle after combining main substance and activation substance; assay type: physicochemical
Experimental: Carbon monoxide (CO) release was 1.30 mL, 0.95 mL, 0.44 mL, and 0.23 mL corresponding to 15 mg, 10 mg, 5 mg, and 2.5 mg of the main substance 42 (“Mo-CORM”), respectively.
Carbon monoxide (CO) release ranged from 0.95 mL to 0.34 mL corresponding to 50 μL to 10 μL of the activation substance 44 (“FeCl”), respectively.

| Molecule | progressive motility of spermatozoa (human semen/spermatozoa [1]) | Relative DNA fragmentation (wCO / woCO) (human semen/spermatozoa [2]) | Relative oxidation-reduction-potential (sORP wCO / sORP woCO) (human semen/spermatozoa [3]) | oxidation-reduction potential (sORP) of treated gametes (Human sperm; subject 38_7, contacted with carbon monoxide for 60 min) | oxidation-reduction potential (sORP) of treated gametes (Human sperm; subject 42_1, contacted with carbon monoxide for 90 min) | released amount/volume of carbon monoxide (CO) from the receptacle ([4]; 2.5 mg of the main substance (Mo-CORM), FIG. 9A) [mL] | released amount/volume of carbon monoxide (CO) from the receptacle ([4]; 5 mg of the main substance (Mo-CORM), FIG. 9A) [mL] | released amount/volume of carbon monoxide (CO) from the receptacle ([4]; 10 mg of the main substance (Mo-CORM), FIG. 9A) [mL] | released amount/volume of carbon monoxide (CO) from the receptacle ([4]; 15 mg of the main substance (Mo-CORM), FIG. 9A) [mL] | released amount/volume of carbon monoxide (CO) from the receptacle ([4]; 10 μL of the activation substance (FeCl), FIG. 9B) [mL] | released amount/volume of carbon monoxide (CO) from the receptacle ([4]; 50 μL of the activation substance (FeCl), FIG. 9B) [mL] |
| --- | --- | --- | --- | --- | --- | --- | --- | --- | --- | --- | --- |
| [C-]#[O+] [CO, carbon monoxide] | improvement | reduced | trend to be lower | drastic reduction | drastic reduction |  |  |  |  |  |  |
| trisodiumtricarbonyl-[tris(isocyanoethylacetate)]molybdenum [Mo-CORM] |  |  |  |  |  | 0.23 | 0.44 | 0.95 | 1.30 | 0.34 | 0.95 |
